Values quoted from earlier work as cited in patent publication US20240228966A1, “UROLITHIN FOR INCREASING STEM CELL FUNCTION” (SOCIETE DES PRODUITS NESTLE S.A., priority 2021, published 2024).

Test system: human HSCs
Settings: culture media supplemented with nicotinamide riboside; cited from earlier work

## NC(=O)c1ccc[n+]([C@@H]2O[C@H](CO)[C@@H](O)[C@H]2O)c1 [nicotinamide riboside]
  levels of engraftment in recipient humanised mice: significantly higher levels of engraftment
